According to patent publication US10774046B2, “Inhibitors for the treatment of cancer and related methods” (UNIVERSITY OF LOUISVILLE RESEARCH FOUNDATION, INC., priority 2017, dated 2020):

Experiments:
[1] = tested on: LLC xenografts; assay: Ki67 immunohistochemistry of tumors; assay type: in vivo, C57BL/6 mice; details: 120 mg/kg by gavage daily, ten days
Description: Formalin-fixed, paraffin-embedded tissue sections were processed as previously described then incubated with anti-Ki-67 primary antibody (Abcam) overnight, followed by HRP-linked goat anti-rabbit secondary antibody (1:300, Pierce). Sections were developed with 3,3′-diaminobenzidine tetrahydrochloride, counterstained, scanned and analyzed with the positive pixel count algorithm as previously described. Data are depicted as % positive pixels/total pixels±SD.

[2] = pharmacokinetic profile after IV and oral administration; assay type: in vivo; details: C57BL/6 mice
Description: The pharmacokinetic profile was determined in female C57BL/6 mice following IV and oral administration of 5MPN. Using only female mice lowered the animal numbers required for meaningful results without issues of potential gender differences in exposure. Eight time points (n=3/time point) were used to determine PK parameters calculated using WinNonLin v5.0. Plasma samples were extracted using acetonitrile and analyzed by LC/MS-MS using a PhenomexSynergi Polar-RP 4 micron 50×2.0 mm column eluted with a biphasic mobile phase (0.5% formic acid in acetonitrile and water).

[3] = tested on: hT/LT/Ras cells; assay: cell growth of transformed cells, live cell count; assay type: cell-based, human; details: live cells at 48 hours
From the text: H460, H1299, H441, H522 and A549 non-small cell lung cancer (NSCLC), MDA-MB-231 (breast), LNCaP (prostatic) and HCT116 (colon) adenocarcinoma and Lewis lung carcinoma (LLC) cell lines were obtained from ATCC and used within 6 months of acquisition. PFKFB4^−/− ear pinna fibroblasts isolated from TamCre/loxP/PFKFB4^−/− mice were immortalized as described previously (Chesney J et al. Fructose-2,6-bisphosphate synthesis by 6-phosphofructo-2-kinase/fructose-2,6-bisphosphatase 4 (PFKFB4) is required for the glycolytic response to hypoxia and tumor growth. Oncotarget 2014 Aug. 30; 5(16):6670-86). Normal bronchial epithelial cells (NHBE) were obtained from Lonza and NHBE cells expressing telomerase, SV40 large T antigen and activated Ras (hT/LT/Ras) were a gift from Dr. B. J. Rollins, Dana Farber Cancer Institute. All cell lines were tested and found negative for mycoplasma (PCR Mycoplasma Detection Kit, ABM). Cell lines were grown in DMEM (A549, LNCaP, MDA-MB-231, LLC and PFKFB4^−/−), RPMI 1640 (H460, H1299, H441, H522) and McCoy's 5A media (HCT116) (all from Invitrogen) containing 10% fetal calf serum (Hyclone). […]
Cells were incubated in 20% trypan blue (Sigma) for 5 minutes. Cells excluding trypan blue were counted using a standard hemocytometer (Hausser Scientific) to determine total numbers of viable cells. Data are expressed as mean±SD of three experiments.

[4] = tested on: LLC cells; assay: cell cycle analysis by flow cytometry; assay type: cell-based, mouse; details: LLC cells in vitro, 10 μM 5MPN
Description: To measure apoptosis, cells were stained with annexin V and propidium iodide and examined as previously described. For example, H460 cells were exposed to increasing concentrations of the PFKFB4 inhibitor (MPN-2), the PFKFB3 inhibitor PFK15 (Tocris) or both and viable cells were counted at 24, 48 and 72 hours. DMSO used as vehicle. For cell cycle experiments, cells were detached, washed with cold PBS and fixed in 70% ethanol (4° C., 30 minutes). The cells then were pelleted by centrifugation, resuspended in PBS containing PI and RNase A, incubated at 37° C. in the dark for 30 minutes and analyzed by flow cytometry (BD FACSCalibur). Data were analyzed using FlowJo software (TREE STAR Inc.). Results were calculated as the mean±SD of three experiments. The effects (Fa values) of the series of concentrations of MPN-2 and PFK-15 were examined individually and in combination at a constant ratio of 1:1.

[5] = biological target: PFKFB3 (Homo sapiens, UniProt Q16875); assay: PFKFB3 kinase activity; assay type: biochemical; details: 10 μM
Sequence of PFKFB3 (Q16875 whole entry, species assumed): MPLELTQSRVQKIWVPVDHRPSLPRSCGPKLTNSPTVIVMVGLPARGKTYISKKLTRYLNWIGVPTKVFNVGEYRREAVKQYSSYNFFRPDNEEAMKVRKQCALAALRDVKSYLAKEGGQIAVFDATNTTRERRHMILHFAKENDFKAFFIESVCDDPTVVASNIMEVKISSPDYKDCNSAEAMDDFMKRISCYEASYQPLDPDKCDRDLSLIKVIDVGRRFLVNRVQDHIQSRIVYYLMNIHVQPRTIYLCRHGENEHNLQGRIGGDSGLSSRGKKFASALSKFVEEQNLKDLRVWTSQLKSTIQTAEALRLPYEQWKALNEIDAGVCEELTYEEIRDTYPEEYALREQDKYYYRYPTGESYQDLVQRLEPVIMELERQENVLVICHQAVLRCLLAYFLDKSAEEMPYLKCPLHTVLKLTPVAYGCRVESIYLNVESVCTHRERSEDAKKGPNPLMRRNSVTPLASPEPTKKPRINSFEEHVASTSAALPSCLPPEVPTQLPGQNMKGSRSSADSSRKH

[6] = tested on: cancer cells; assay: intracellular ATP measurement; assay type: cell-based; details: increasing concentrations
Description: Method: To measure ATP, cells were washed (while still adherent) with cold PBS, lysed with Passive Lysis Buffer (Molecular Probes, Invitrogen) added directly to the plates, and immediately harvested by scraping. The lysates were flash frozen (to −80° C.) and thawed (to 37° C.) once to accomplish complete lysis and then centrifuged to clear the lysates. Intracellular ATP levels were determined using a bioluminescence assay (Molecular Probes), utilizing luciferase and its substrate, D-luciferin and ATP values were calculated using an ATP standard curve. The ATP concentration was normalized to protein concentration that was estimated using the BCA assay.

[7] = tested on: cancer cells; assay: F26BP measurement in cells; assay type: cell-based; details: increasing concentrations
Description: Method: In order to measure F26BP, cells were exposed to increasing concentrations of Formula (VIII) and were harvested, washed with PBS, lysed in NaOH/Tris acetate by heating at 80° C. and lysates neutralized to pH 7.2. F26BP content was measured using a coupled enzyme reaction following a modified method of Van Schaftingen (VAN SCHAFTINGEN et al, “A kinetic study of pyrophosphate:fructose-6-phosphate phosphotransferase from potato tubers. Application to a microassay of fructose 2,6-bisphosphate” Eur J Biochem. (1982) Vol. 129, No. 1, pp. 191-195), which is herein incorporated by reference in its entirety. The F26BP concentration was normalized to total cellular protein measured by the bicinchoninic acid assay (BCA, Thermo Scientific).

Row | SMILES | Ki67-positive cells [1] | oral bioavailability [2] | concentrations reached by intravenous and oral administration ([2]; IV and oral, administered daily) | cell growth of transformed cells [3] | cell cycle distribution [4] | inhibition of kinase activity [5] | production of ATP [6] | F26BP (normalized to cellular protein) [7]
1 | COc1cccc2c(NCCCCCO[N+](=O)[O-])ccnc12 [5MPN, 5-[(8-methoxyquinolin-4-yl)amino]pentyl nitrate] | reduction in Ki67-positive cells | has oral bioavailability | adequate to achieve potentially therapeutic concentrations | suppressed | G1 arrest | did not inhibit |  | 
2 | COc1cccc2c(NCCCCCNC(=O)C(F)(F)F)ccnc12 [Formula (VIII), 2,2,2-trifluoro-N-(5-((8-methoxyquinolin-4-yl)amino)pentyl)acetamide] |  |  |  |  |  |  | dose-dependent decrease | dose-dependent decrease
